{"source": "patent EP2108954A1", "about": "“A test system for detecting intracellular cyclic nucleotide level and methods and uses thereof” (Max-Planck-Gesellschaft zur Förderung der Wissenschaften …, priority 2008, dated 2009)", "target": "T1, Or22a and Or83b (Drosophila melanogaster, UniProt P81909+Q9VNB5)", "T1 construct": "expressed in transfected cells; host or cells: HEK293", "T1 sequence (P81909 1-397)": "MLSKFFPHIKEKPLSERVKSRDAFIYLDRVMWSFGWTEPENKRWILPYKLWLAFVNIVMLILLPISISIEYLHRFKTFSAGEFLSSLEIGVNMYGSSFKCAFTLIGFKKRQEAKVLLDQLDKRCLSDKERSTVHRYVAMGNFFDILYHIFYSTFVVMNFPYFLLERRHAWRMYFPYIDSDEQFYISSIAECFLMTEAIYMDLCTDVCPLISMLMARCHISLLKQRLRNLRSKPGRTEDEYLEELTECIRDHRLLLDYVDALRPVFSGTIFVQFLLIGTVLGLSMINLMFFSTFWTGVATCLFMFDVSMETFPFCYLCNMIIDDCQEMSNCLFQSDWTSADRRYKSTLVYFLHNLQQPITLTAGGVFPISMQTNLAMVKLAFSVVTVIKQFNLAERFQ", "T1 sequence (Q9VNB5 1-486)": "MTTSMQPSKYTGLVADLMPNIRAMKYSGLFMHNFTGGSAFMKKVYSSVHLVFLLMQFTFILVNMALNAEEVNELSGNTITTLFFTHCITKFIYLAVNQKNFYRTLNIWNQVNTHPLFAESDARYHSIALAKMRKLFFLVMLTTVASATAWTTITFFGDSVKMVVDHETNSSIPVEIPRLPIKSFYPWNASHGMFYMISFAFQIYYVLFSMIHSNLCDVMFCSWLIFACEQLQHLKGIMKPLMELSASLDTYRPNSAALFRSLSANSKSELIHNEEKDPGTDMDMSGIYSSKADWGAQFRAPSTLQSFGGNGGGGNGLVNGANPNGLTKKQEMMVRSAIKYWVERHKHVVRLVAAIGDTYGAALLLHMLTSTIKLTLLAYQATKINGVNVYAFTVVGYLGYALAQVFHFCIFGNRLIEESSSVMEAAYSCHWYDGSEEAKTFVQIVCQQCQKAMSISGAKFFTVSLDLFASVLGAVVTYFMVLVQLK", "test": "Whole-cell patch-clamp of currents in HEK293 cells coexpressing Or22a and Or83b", "assay_type": "cell-based", "method": "In some experiments we transfected cells with pcDNA3-DOR22a-GFP or pcDNA3-DOR83b-GFP alone. We also examined the properties of DOR47a, which was cloned, using standard molecular biology methods into a pcDNA3.1(-) expression vector. To test for putative G-protein coupling, cells were transfected with the respective OR-DNA together with 1.5 µg hHCN2/pcDNA3 (provided by M. Biel, Munich, Germany), with 1 µg hKCNQ4/pcDNA3.1 or with 1 µg hCNGA2/pCMV6-XL4 (Origene, Rockville, MD, USA).\nIn brief, ion currents in HEK293 cells were measured at room temperature using whole-cell patch-clamp with appropriate compensation of series resistance and of capacitive currents. Additional experiments were performed in the outside-out configuration. Current measurements and data acquisition were performed using an EPC9 patch-clamp amplifier controlled by PatchMaster software (both HEKA Elektronik, Lambrecht, Germany). Patch-clamp pipettes were fabricated from borosilicate capillaries. Pipettes for whole-cell recordings had resistances of 2-4 MΩ for excised-patch recordings the pipette resistance was up to 15 MΩ.\nTo differentiate between ionotropic and metabotropic pathways of receptor activation (Fig. 2a-d) the pipette solution contained either 2 mM ATP plus 2 mM GTP or 2 mM ADP plus 2 mM GDP (both for whole-cell and outside-out configuration). For the preparation of Cl^--free solutions the chloride salts were substituted by gluconate salts. The pipette Cs^+ solution contained (in mM) 140 CsCl, 1 Mg-ATP, 10 EGTA, 10 HEPES (pH = 7.3), and the Cs^+ bath solution contained (in mM) 140 CsCl, 15 glucose, 15 HEPES (pH = 7.4). The Ca^2+-free bath solution contained (in mM) 140 NaCl, 15 glucose, 15 HEPES, and the Na^+-free bath solution contained (in mM) 140 NMDG-Cl, 10 CaCl2, 10 glucose, 15 HEPES.\nWith the exception of GDP-γ-S, which was applied via the patch pipette, all substances were applied to the bath using either a bath perfusion system (BPS4 from ALA, New York, USA) or a rapid solution changer (RSC160 from Biologic, Claix, France) which were controlled by the PatchMaster software (HEKA Elektronik).", "key": {"[1]": {"settings": "Etb 100 nM, 1 s, whole-cell, -60 mV, Or22a C-terminal GFP fusion protein, ADP and GDP (-)"}, "[2]": {"settings": "Etb 100 nM, 1 s, whole-cell, -60 mV, Or22a C-terminal GFP fusion protein, ATP and GTP (+)"}, "[3]": {"settings": "Etb 100 nM, 1 s, whole-cell, -60 mV, Or22a N-terminal GFP fusion protein, ADP and GDP (-)"}, "[4]": {"settings": "Etb 100 nM, 1 s, whole-cell, -60 mV, Or22a N-terminal GFP fusion protein, ATP and GTP (+)"}, "[5]": {"settings": "short Etb application, whole-cell, -60 mV, Tab. 1"}, "[6]": {"settings": "short Etb application, whole-cell, -60 mV, internal ATP and GTP, Tab. 1"}}, "note": "Read-outs that look alike come from different tables or passages of the source."}
{"smiles": "CCCC(=O)OCC", "note": "[Etb, ethyl butyrate]", "values": [{"measurement": "further increase of current", "setting": "100 µM Etb after stimulation with 100 µM 8-bromo-cAMP", "value": "+1.6 ± 3.8 % of current induced by 8-bromo-cAMP"}, {"measurement": "Etb-induced current in symmetrical Cs+ solutions", "setting": "140 mM Cs+ in pipette and bath solution, n = 6", "value": "No current was detected"}, {"measurement": "EC50", "setting": "EC50 of Etb-induced currents, 500 µM GDP-β-S in the pipette, n = 11", "value": 70, "unit": "nM"}, {"measurement": "latency of Ii", "setting": "Etb 100 nM, 1 s, whole-cell, -60 mV", "value": "< 0.5", "unit": "s"}, {"measurement": "Ii Decay time", "setting": "[1]", "value": "10.8 ± 0.6", "unit": "s"}, {"measurement": "Ii Peak size", "setting": "[1]", "value": "133 ± 51", "unit": "pA"}, {"measurement": "Ii Peak time", "setting": "[1]", "value": "1.13 ± 0.02", "unit": "s"}, {"measurement": "Im Decay time", "setting": "[1]", "value": "68 ± 8", "unit": "s"}, {"measurement": "Im Latency", "setting": "[1]", "value": "18 ± 8", "unit": "s"}, {"measurement": "Im Peak size", "setting": "[1]", "value": "77 ± 7", "unit": "PA"}, {"measurement": "Im Peak time", "setting": "[1]", "value": "43 ± 9", "unit": "s"}, {"measurement": "Ii Decay time", "setting": "[2]", "value": "10.5 ± 0.7", "unit": "s"}, {"measurement": "Ii Peak size", "setting": "[2]", "value": "100 ± 23", "unit": "pA"}, {"measurement": "Ii Peak time", "setting": "[2]", "value": "1.10 ± 0.03", "unit": "s"}, {"measurement": "Im Decay time", "setting": "[2]", "value": "79 ± 5", "unit": "s"}, {"measurement": "Im Latency", "setting": "[2]", "value": "10 ± 2", "unit": "s"}, {"measurement": "Im Peak size", "setting": "[2]", "value": "291 ± 54", "unit": "PA"}, {"measurement": "Im Peak time", "setting": "[2]", "value": "58 ± 4", "unit": "s"}, {"measurement": "Ii Decay time", "setting": "[3]", "value": "10.4 ± 0.9", "unit": "s"}, {"measurement": "Ii Peak size", "setting": "[3]", "value": "132 ± 38", "unit": "pA"}, {"measurement": "Ii Peak time", "setting": "[3]", "value": "0.90 ± 0.17", "unit": "s"}, {"measurement": "Im Decay time", "setting": "[3]", "value": "63 ± 9", "unit": "s"}, {"measurement": "Im Latency", "setting": "[3]", "value": "24 ± 5", "unit": "s"}, {"measurement": "Im Peak size", "setting": "[3]", "value": "51 ± 6", "unit": "PA"}, {"measurement": "Im Peak time", "setting": "[3]", "value": "44 ± 6", "unit": "s"}, {"measurement": "Ii Decay time", "setting": "[4]", "value": "10.2 ± 0.9", "unit": "s"}, {"measurement": "Ii Peak size", "setting": "[4]", "value": "98 ± 23", "unit": "pA"}, {"measurement": "Ii Peak time", "setting": "[4]", "value": "1.16 ± 0.06", "unit": "s"}, {"measurement": "Im Decay time", "setting": "[4]", "value": "80 ± 8", "unit": "s"}, {"measurement": "Im Latency", "setting": "[4]", "value": "11 ± 3", "unit": "s"}, {"measurement": "Im Peak size", "setting": "[4]", "value": "311 ± 51", "unit": "PA"}, {"measurement": "Im Peak time", "setting": "[4]", "value": "62 ± 9", "unit": "s"}, {"measurement": "Hill coefficient of olfactory receptor current (ORC)", "setting": "cells coexpressing Or22a, Or83b and hKCNQ4, n = 6", "value": 0.41}, {"measurement": "EC50", "setting": "cells coexpressing Or22a, Or83b and hKCNQ4, normalized to maximum response, n = 6, read-out: EC50 of olfactory receptor current (ORC)", "value": 0.256, "unit": "nM"}, {"measurement": "Hill coefficient of Etb-induced currents", "setting": "control conditions, n = 9", "value": 0.61}, {"measurement": "EC50", "setting": "control conditions, n = 9, read-out: EC50 of Etb-induced currents", "value": 0.677, "unit": "nM"}, {"measurement": "EC50", "setting": "half-maximal effect (current size), metabotropic current response", "value": "~0.7", "unit": "nM"}, {"measurement": "odorant concentration at which current size saturates", "setting": "metabotropic current response, Fig. 2f", "value": "about 100 nM"}, {"measurement": "odour-induced current in Cl^--free solutions", "setting": "n = 5", "value": "remained unchanged"}, {"measurement": "Ii peak", "setting": "[5]", "value": 1, "unit": "s"}, {"measurement": "Ii termination", "setting": "[5]", "value": 10, "unit": "s"}, {"measurement": "Im Latency", "setting": "[6]", "value": 10, "unit": "s"}, {"measurement": "Im peak", "setting": "[6]", "value": 60, "unit": "s"}, {"measurement": "Im termination", "setting": "[6]", "value": 80, "unit": "s"}]}
